Data taken from US20240182461A1, “SELECTIVE ANGIOTENSIN II RECEPTOR LIGANDS” (priority 2021, published 2024).
pIC50, pKi: −log10 of the molar value. Where two headings read alike, the source gives them in different places.

What was measured:
[1] = biological target: T1, human recombinant AT1 receptor (Homo sapiens, UniProt P30556); assay: Radioligand binding to AT1 receptor (Eurofins radiometric scintillation assay); conditions: 1 and 10 μM; ligand 125I(sar1,Ile8)-AT-II
T1 construct: Eurofins (protocol only) ITEM24
T1 sequence (P30556 1-359): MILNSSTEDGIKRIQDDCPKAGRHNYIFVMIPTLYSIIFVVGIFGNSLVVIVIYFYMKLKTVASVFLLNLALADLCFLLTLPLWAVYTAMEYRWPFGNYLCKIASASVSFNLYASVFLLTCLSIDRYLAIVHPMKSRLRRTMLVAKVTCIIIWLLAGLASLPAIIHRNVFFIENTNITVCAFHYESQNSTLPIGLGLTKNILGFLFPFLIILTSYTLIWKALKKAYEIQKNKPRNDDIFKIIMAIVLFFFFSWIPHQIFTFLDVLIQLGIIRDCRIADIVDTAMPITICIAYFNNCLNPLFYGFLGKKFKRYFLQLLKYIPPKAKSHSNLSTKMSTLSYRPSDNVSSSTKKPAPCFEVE

[2] = biological target: T2, human recombinant AT2 receptor (Homo sapiens, UniProt P50052); assay: Radioligand binding to AT2 receptor (Eurofins radiometric scintillation assay); conditions: ligand 125I CGP 42112A; for pIC50: 1, 10, 100 and 1000 nM, read-out: AT2 GraFit IC50; for pKi: seven-point dose-response curve, read-out: AT2R Ki
T2 construct: Eurofins (protocol only) ITEM26
T2 sequence (P50052 1-363): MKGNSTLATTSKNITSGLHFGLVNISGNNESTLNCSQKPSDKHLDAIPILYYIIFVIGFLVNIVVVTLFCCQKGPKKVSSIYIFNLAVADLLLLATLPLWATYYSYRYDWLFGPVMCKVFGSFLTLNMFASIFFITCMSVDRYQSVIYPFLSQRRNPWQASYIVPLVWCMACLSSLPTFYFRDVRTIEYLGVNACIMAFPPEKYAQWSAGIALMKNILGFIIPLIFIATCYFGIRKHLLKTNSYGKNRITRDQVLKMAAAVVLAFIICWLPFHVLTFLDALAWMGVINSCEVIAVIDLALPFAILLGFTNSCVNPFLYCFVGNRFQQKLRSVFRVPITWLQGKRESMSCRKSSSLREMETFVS

CYP3A4 [3] = biological target: T3, CYP3A4 (Homo sapiens, UniProt P08684); assay: CYP inhibition of C21 found during development; assay type: in vitro ADME
T3 sequence (P08684 whole entry): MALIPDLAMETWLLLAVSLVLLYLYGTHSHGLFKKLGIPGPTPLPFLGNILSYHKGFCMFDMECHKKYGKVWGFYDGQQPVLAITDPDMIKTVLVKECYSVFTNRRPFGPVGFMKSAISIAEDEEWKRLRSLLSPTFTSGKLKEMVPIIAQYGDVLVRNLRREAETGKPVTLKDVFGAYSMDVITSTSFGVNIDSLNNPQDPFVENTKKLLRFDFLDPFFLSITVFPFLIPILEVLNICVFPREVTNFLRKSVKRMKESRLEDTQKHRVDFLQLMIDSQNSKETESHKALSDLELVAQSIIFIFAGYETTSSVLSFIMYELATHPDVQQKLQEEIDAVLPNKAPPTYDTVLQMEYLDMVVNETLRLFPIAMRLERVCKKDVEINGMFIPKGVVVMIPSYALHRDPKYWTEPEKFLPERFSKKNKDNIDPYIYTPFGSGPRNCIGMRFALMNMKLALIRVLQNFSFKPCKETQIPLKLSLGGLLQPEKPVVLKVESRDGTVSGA

CYP2C9 [4] = biological target: T4, CYP2C9 (Homo sapiens, UniProt P11712); assay: CYP inhibition of C21 found during development; assay type: in vitro ADME
T4 sequence (P11712 whole entry): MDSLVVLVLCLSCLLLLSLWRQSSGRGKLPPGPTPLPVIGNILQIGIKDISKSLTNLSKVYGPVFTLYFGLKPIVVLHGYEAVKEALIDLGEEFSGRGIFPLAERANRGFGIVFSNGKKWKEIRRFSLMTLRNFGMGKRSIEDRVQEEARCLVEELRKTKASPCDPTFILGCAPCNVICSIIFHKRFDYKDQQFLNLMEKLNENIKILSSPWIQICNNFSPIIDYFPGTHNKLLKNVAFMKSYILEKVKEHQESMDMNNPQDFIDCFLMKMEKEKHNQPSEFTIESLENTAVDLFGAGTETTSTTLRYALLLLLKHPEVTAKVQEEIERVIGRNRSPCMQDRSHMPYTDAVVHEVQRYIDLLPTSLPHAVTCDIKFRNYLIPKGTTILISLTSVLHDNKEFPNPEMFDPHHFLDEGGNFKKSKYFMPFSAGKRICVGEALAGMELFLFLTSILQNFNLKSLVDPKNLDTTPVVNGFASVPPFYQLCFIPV

[5] = Metabolic hydrolysis of C21 found during development; assay type: in vitro ADME
CYP2D6 = biological target: T5, CYP2D6 (Homo sapiens, UniProt P10635); assay: CYP inhibition in human liver microsomes, CYP2D6; assay type: in vitro ADME; conditions: probe dextromethorphan, substrate dextromethorphan, read-out: CYP2D6 Inh %
T5 construct: incubated with human liver microsomes; from tissue; host or cells: human liver microsomes
T5 sequence (P10635 whole entry): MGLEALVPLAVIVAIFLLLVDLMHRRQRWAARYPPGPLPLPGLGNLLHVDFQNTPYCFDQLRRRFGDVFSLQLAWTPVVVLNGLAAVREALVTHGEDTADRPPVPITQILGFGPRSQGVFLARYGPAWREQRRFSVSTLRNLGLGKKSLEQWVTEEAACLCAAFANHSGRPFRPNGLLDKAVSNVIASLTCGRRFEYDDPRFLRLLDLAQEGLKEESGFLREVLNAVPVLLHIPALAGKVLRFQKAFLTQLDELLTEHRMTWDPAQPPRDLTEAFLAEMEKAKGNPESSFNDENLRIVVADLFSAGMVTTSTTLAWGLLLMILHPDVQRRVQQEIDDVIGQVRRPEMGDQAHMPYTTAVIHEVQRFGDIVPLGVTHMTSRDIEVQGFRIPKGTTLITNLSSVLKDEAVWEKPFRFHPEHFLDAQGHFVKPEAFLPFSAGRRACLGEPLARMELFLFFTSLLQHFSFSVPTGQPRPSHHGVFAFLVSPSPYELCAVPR

[6] = Metabolic stability in pooled human liver microsomes; assay type: in vitro ADME; conditions: human liver microsomes 0.5 mg/mL, 1 μM compound, 37° C.
CYP2C8 = biological target: T6, CYP2C8 (Homo sapiens, UniProt P10632); assay: CYP inhibition in human liver microsomes, CYP2C8; assay type: in vitro ADME; conditions: probe paclitaxel and amodiaquine, substrates paclitaxel and amodiaquine, read-out: CYP2C8 Inh %
T6 construct: incubated with human liver microsomes; from tissue; host or cells: human liver microsomes
T6 sequence (P10632 1-490): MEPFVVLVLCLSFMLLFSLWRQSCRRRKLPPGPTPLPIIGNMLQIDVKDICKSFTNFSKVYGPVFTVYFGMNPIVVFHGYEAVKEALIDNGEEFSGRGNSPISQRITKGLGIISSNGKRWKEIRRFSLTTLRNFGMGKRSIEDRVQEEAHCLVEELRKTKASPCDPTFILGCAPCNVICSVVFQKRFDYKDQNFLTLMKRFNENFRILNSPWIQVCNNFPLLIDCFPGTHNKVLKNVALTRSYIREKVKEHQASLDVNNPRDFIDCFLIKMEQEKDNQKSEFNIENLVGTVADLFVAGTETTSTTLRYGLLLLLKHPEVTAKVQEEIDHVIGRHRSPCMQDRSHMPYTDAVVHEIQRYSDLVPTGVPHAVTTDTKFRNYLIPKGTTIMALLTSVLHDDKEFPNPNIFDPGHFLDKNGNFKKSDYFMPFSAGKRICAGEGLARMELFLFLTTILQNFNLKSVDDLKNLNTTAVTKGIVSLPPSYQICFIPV

CYP2B6 = biological target: T7, CYP2B6 (Homo sapiens, UniProt P20813); assay: CYP inhibition in human liver microsomes, CYP2B6; assay type: in vitro ADME; conditions: probe bupropion, substrate bupropion, read-out: CYP2B6 Inh %
T7 construct: incubated with human liver microsomes; from tissue; host or cells: human liver microsomes
T7 sequence (P20813 1-491): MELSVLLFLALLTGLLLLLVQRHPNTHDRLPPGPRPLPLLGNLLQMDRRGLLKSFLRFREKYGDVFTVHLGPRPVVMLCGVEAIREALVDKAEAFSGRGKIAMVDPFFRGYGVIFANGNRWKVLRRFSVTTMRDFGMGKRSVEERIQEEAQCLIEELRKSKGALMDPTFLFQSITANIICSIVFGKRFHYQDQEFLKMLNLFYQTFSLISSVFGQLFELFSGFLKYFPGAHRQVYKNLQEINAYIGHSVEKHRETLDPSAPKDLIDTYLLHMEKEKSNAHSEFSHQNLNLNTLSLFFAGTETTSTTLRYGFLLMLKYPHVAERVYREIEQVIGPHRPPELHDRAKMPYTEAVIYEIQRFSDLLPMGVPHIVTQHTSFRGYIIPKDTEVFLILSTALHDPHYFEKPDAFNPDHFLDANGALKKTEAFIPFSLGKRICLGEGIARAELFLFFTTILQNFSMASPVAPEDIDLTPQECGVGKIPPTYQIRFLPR

CYP3A4 [7] = biological target: T3, CYP3A4; assay: CYP inhibition in human liver microsomes, CYP3A4 midazolam; assay type: in vitro ADME; parameters: incubated with human liver microsomes; from tissue; host or cells: human liver microsomes; conditions: probe midazolam, substrate midazolam, read-out: CYP3A4 midazolam Inh %
CYP2C19 = biological target: T8, CYP2C19 (Homo sapiens, UniProt P33261); assay: CYP inhibition in human liver microsomes, CYP2C19; assay type: in vitro ADME; conditions: probe omeprazole, substrate omeprazole, read-out: CYP2C19 Inh %
T8 construct: incubated with human liver microsomes; from tissue; host or cells: human liver microsomes
T8 sequence (P33261 whole entry): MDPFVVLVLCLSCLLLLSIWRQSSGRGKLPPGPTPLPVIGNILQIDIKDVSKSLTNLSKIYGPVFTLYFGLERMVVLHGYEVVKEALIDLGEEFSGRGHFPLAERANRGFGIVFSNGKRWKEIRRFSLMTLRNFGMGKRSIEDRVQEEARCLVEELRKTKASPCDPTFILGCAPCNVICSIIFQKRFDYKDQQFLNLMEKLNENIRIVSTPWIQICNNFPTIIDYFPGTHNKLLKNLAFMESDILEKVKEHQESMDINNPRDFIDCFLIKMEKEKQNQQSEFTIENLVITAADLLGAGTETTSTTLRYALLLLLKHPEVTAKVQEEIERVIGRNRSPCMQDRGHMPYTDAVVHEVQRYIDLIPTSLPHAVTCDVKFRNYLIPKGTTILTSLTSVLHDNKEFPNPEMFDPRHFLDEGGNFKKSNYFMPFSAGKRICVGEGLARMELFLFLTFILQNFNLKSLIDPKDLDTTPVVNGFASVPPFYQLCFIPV

CYP1A = biological target: T9, CYP1A (Homo sapiens, UniProt P05177); assay: CYP inhibition in human liver microsomes, CYP1A; assay type: in vitro ADME; conditions: probe phenacetin, substrate phenacetin, read-out: CYP1A Inh %
T9 construct: incubated with human liver microsomes; from tissue; host or cells: human liver microsomes
T9 sequence (P05177 whole entry): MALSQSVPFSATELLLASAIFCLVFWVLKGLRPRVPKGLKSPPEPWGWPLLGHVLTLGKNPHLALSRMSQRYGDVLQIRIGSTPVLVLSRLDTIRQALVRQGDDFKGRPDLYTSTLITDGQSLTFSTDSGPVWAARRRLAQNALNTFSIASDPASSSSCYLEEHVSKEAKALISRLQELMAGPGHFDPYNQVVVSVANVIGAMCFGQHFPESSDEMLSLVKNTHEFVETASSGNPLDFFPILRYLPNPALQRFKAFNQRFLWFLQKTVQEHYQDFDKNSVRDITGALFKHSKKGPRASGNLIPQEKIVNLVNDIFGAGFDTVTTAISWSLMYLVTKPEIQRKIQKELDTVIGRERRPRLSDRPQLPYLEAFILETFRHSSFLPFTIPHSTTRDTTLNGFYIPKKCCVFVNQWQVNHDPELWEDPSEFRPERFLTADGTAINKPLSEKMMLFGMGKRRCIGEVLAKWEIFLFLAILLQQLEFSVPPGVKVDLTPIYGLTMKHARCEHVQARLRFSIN

CYP2C9 [8] = biological target: T4, CYP2C9; assay: CYP inhibition in human liver microsomes, CYP2C9; assay type: in vitro ADME; parameters: incubated with human liver microsomes; from tissue; host or cells: human liver microsomes; conditions: probe diclofenac, substrate diclofenac, read-out: CYP2C9 Inh %
CYP3A4&5 = assay: CYP inhibition in human liver microsomes, CYP3A4&5 testosterone; assay type: in vitro ADME; conditions: probe testosterone, substrate testosterone, read-out: CYP3A4&5 testosterone Inh %
[9] = with 1 mM NADPH, read-out: T1/2, + NaDPH
[10] = without NADPH, read-out: T1/2, no NaDPH

Compound | pIC50 [1] | pIC50 [2] | pKi [2] | half-life at 1 μM [6, 9] [min] | half-life at 1 μM [6, 10] [min] | further results
CC(C)Cc1nc(-c2ccc(Cn3ccnc3C(C)(C)C)cc2)c(S(=O)(=O)NC(=O)NCc2cccs2)s1 [Example 1, 4-(4-((2-(tert-Butyl)-1H-imidazol-1-yl)methyl)phenyl)-2-isobutyl-N-((thiophen-2-ylmethyl)carbamoyl)thiazole-5-sulfonamide] | 5.87 | 7.89 | 8.19 |  |  | 
CCCCOC(=O)NS(=O)(=O)c1sc(CC(C)C)cc1-c1ccc(Cn2ccnc2)cc1 [Example C21, N-butyloxycarbonyl-3-(4-imidazol-1-ylmethylphenyl)-5-isobutylthiophene-2-sulfon-amide] |  |  |  |  |  | inhibition of CYP 3A4 (CYP3A4 [3]): potent inhibitor; inhibition of CYP 2C9 (CYP2C9 [4]): potent inhibitor; metabolic hydrolysis [5]: rapidly hydrolysed to an inactive sulfonamide metabolite
CC(C)Cc1ccc(S(=O)(=O)NC(=O)NCc2ccccn2)c(-c2ccc(Cn3ccnc3C(C)(C)C)cc2)c1 [Example 2, 4′-((2-(tert-Butyl)-1H-imidazol-1-yl)methyl)-5-isobutyl-N-((pyridin-2-ylmethyl)carbamoyl)-[1,1′-biphenyl]-2-sulfonamide] | 5.34 | 9.37 | 9.66 |  |  | 
CC(C)Cc1ccc(S(=O)(=O)NC(=O)OCCO)c(-c2ccc(Cn3ccnc3C(C)(C)C)c(F)c2)c1 [Example 17, 2-Hydroxyethyl (4′-((2-(tert-butyl)-1H-imidazol-1-yl)methyl)-3′-fluoro-5-isobutyl-[1,1′-biphenyl]-2-yl)sulfonylcarbamate] |  | 9.56 | 9.85 | > 60 | > 60 | 

Further compounds by rising pIC50 [2], results first:

pIC50 [1] | pIC50 [2] | pKi [2] | half-life at 1 μM [6, 9] [min] | half-life at 1 μM [6, 10] [min] | Compound | further results
 | 8.75 | 9.03 | > 60 | > 60 | COC(=O)NS(=O)(=O)c1ccc(CC(C)C)cc1-c1ccc(Cn2ccnc2C)cc1 [Example 18, Methyl (5-isobutyl-4′-((2-methyl-1H-imidazol-1-yl)methyl)-[1,1′-biphenyl]-2-yl)sulfonylcarbamate] | 
5.92 | 9.31 | 9.60 | 2 | 4 | CCCCOC(=O)NS(=O)(=O)c1ccc(CC(C)C)cc1-c1ccc(Cn2ccnc2C(C)(C)C)c(F)c1 [Example 4, Butyl ((4′-((2-(tert-butyl)-1H-imidazol-1-yl)methyl)-3′-fluoro-5-isobutyl-[1,1′-biphenyl]-2-yl)sulfonyl)carbamate] | inhibition at 10 µM (CYP2D6): 26.5%; inhibition at 10 µM (CYP2C8): 87.5%; inhibition at 10 µM (CYP2B6): 62.4%; inhibition at 10 µM (CYP3A4 [7]): 18.1%; inhibition at 10 µM (CYP2C19): 60.4%; inhibition at 10 µM (CYP1A): -35.8%; inhibition at 10 µM (CYP2C9 [8]): 92.8%; inhibition at 10 µM (CYP3A4&5): 23.5%
